Data taken from US6153424A, “Protease-deficient strains of Pichia methanolica” (ZymoGenetics, Inc., priority 1999, dated 2000).

System: P. methanolica cells (strain CBS6515), UV-mutagenized
Assay: Nystatin enrichment for auxotrophic mutants; titering of colony forming units of treated versus control cells
Type: cell-based, Pichia methanolica
Settings: 1 mg nystatin added to remainder of 500 ml culture (50 ml set aside as control) in minimal broth with 5 g/L ammonium sulfate, 1 additional hour with shaking
Procedure: Large-scale mutagenesis was then carried out using a 2-second UV exposure to provide about 20% killing. Cells were plated at approximately 10^4 cells/plate onto eight YEPD plates that were supplemented with 100 mg/L each of uracil, adenine, and leucine, which were added to supplement the growth of potential auxotrophs having the cognate deficiencies. Following UV exposure the plates were wrapped in foil and incubated overnight at 30° C. The following day the colonies on the plates (~10^5 total) were resuspended in water and washed once with water. An amount of cell suspension sufficient to give an OD600 of 0.1-0.2 was used to inoculate 500 ml of minimal broth made with yeast nitrogen base without amino acids or ammonia, supplemented with 1% glucose and 400 μg/L biotin. The culture was placed in a 2.8 L baffled Bell flask and shaken vigorously overnight at 30° C. The following day the cells had reached an OD600 of ~1.0-2.0. The cells were pelleted and resuspended in 500 ml of minimal broth supplemented with 5 g/L ammonium sulfate. The cell suspension was placed in a 2.8 L baffled Bell flask and shaken vigorously at 30° C. for 6 hours. 50 ml of the culture was set aside in a 250-ml flask as a control, and to the remainder of the culture was added 1 mg nystatin (Sigma Chemical Co., St. Louis, Mo.) to select for auxotrophic mutants (Snow, Nature 211:206-207, 1966). […]

C[C@@H]1[C@H](O)[C@@H](C)/C=C/C=C/CC/C=C/C=C/C=C/C=C/C(O[C@H]2O[C@H](C)[C@@H](O)[C@H](N)[C@@H]2O)CC2O[C@](O)(CC(O)C(O)CCC(O)CC(O)CC(O)CC(=O)O[C@H]1C)CC(O)C2C(=O)O (stereo partly shown) [nystatin]
decrease in the number of viable cells (colony forming units) by a factor: 10^4
